± gives the expanded uncertainty stated by the source.
Experiment: xn = mol fraction of the nth substance listed
Conditions: Liquid, Vibrating tube method

CC(C)=O [acetone] + CCCCCCC
mass density (377.4 K, 104790 kPa, x1 = 0.492): 730.51 ± 1.6 kg/m3
mass density (377.4 K, 104810 kPa, x1 = 0.801): 762.89 ± 1.6 kg/m3
mass density (377.4 K, 109780 kPa, x1 = 0.492): 733.39 ± 1.7 kg/m3
mass density (377.4 K, 109790 kPa, x1 = 0.801): 765.94 ± 1.6 kg/m3
mass density (377.4 K, 109820 kPa, x1 = 0.7024): 753.96 ± 1.6 kg/m3
mass density (377.4 K, 109850 kPa, x1 = 0.611): 743.53 ± 1.6 kg/m3
mass density (377.4 K, 114760 kPa, x1 = 0.801): 768.91 ± 1.6 kg/m3
mass density (377.4 K, 114820 kPa, x1 = 0.7024): 756.89 ± 1.6 kg/m3
mass density (377.4 K, 114850 kPa, x1 = 0.611): 746.4 ± 1.7 kg/m3
mass density (377.4 K, 119800 kPa, x1 = 0.7024): 759.71 ± 1.6 kg/m3
mass density (377.4 K, 119830 kPa, x1 = 0.492): 738.96 ± 1.7 kg/m3
mass density (377.4 K, 119830 kPa, x1 = 0.801): 771.84 ± 1.6 kg/m3
mass density (377.4 K, 124810 kPa, x1 = 0.7024): 762.48 ± 1.7 kg/m3
mass density (377.4 K, 124850 kPa, x1 = 0.492): 741.61 ± 1.7 kg/m3
mass density (377.4 K, 124850 kPa, x1 = 0.801): 774.66 ± 1.6 kg/m3
mass density (377.4 K, 129810 kPa, x1 = 0.7024): 765.17 ± 1.7 kg/m3
mass density (377.4 K, 129840 kPa, x1 = 0.611): 754.52 ± 1.7 kg/m3
mass density (377.4 K, 129840 kPa, x1 = 0.801): 777.42 ± 1.6 kg/m3
mass density (377.4 K, 129850 kPa, x1 = 0.492): 744.18 ± 1.8 kg/m3
mass density (377.41 K, 1430 kPa, x1 = 0.4): 667.78 ± 1.2 kg/m3
mass density (377.41 K, 1430 kPa, x1 = 0.8992): 667.78 ± 1.2 kg/m3
mass density (377.41 K, 5010 kPa, x1 = 0.4): 675.34 ± 1.2 kg/m3
mass density (377.41 K, 5010 kPa, x1 = 0.8992): 675.34 ± 1.2 kg/m3
mass density (377.41 K, 10000 kPa, x1 = 0.4): 684.66 ± 1.2 kg/m3
mass density (377.41 K, 10000 kPa, x1 = 0.8992): 684.66 ± 1.2 kg/m3
mass density (377.41 K, 14980 kPa, x1 = 0.4): 692.99 ± 1.3 kg/m3
mass density (377.41 K, 14980 kPa, x1 = 0.8992): 692.99 ± 1.2 kg/m3
mass density (377.41 K, 19960 kPa, x1 = 0.4): 700.52 ± 1.3 kg/m3
mass density (377.41 K, 19960 kPa, x1 = 0.8992): 700.52 ± 1.2 kg/m3
mass density (377.41 K, 24950 kPa, x1 = 0.4): 707.43 ± 1.3 kg/m3
mass density (377.41 K, 24950 kPa, x1 = 0.8992): 707.43 ± 1.3 kg/m3
mass density (377.41 K, 29840 kPa, x1 = 0.801): 699.24 ± 1.3 kg/m3
mass density (377.41 K, 29860 kPa, x1 = 0.492): 670 ± 1.3 kg/m3
mass density (377.41 K, 29930 kPa, x1 = 0.4): 713.82 ± 1.3 kg/m3
mass density (377.41 K, 29930 kPa, x1 = 0.8992): 713.82 ± 1.3 kg/m3
mass density (377.41 K, 34850 kPa, x1 = 0.801): 705.2 ± 1.3 kg/m3
mass density (377.41 K, 34930 kPa, x1 = 0.4): 719.78 ± 1.3 kg/m3
mass density (377.41 K, 34930 kPa, x1 = 0.8992): 719.78 ± 1.3 kg/m3
mass density (377.41 K, 39850 kPa, x1 = 0.801): 710.77 ± 1.3 kg/m3
mass density (377.41 K, 39910 kPa, x1 = 0.4): 725.35 ± 1.3 kg/m3
mass density (377.41 K, 39910 kPa, x1 = 0.8992): 725.35 ± 1.3 kg/m3
mass density (377.41 K, 44860 kPa, x1 = 0.801): 716 ± 1.3 kg/m3
mass density (377.41 K, 44890 kPa, x1 = 0.4): 730.6 ± 1.4 kg/m3
mass density (377.41 K, 44890 kPa, x1 = 0.8992): 730.6 ± 1.3 kg/m3
mass density (377.41 K, 49850 kPa, x1 = 0.801): 720.93 ± 1.4 kg/m3
mass density (377.41 K, 49880 kPa, x1 = 0.4): 735.58 ± 1.4 kg/m3
mass density (377.41 K, 49880 kPa, x1 = 0.8992): 735.58 ± 1.3 kg/m3
mass density (377.41 K, 54850 kPa, x1 = 0.492): 695.17 ± 1.4 kg/m3
mass density (377.41 K, 54860 kPa, x1 = 0.4): 740.29 ± 1.4 kg/m3
mass density (377.41 K, 54860 kPa, x1 = 0.8992): 740.29 ± 1.4 kg/m3
mass density (377.41 K, 59860 kPa, x1 = 0.4): 744.79 ± 1.4 kg/m3
mass density (377.41 K, 59860 kPa, x1 = 0.8992): 744.79 ± 1.4 kg/m3
mass density (377.41 K, 64820 kPa, x1 = 0.492): 703.44 ± 1.4 kg/m3
mass density (377.41 K, 64830 kPa, x1 = 0.4): 749.06 ± 1.4 kg/m3
mass density (377.41 K, 64830 kPa, x1 = 0.8992): 749.06 ± 1.4 kg/m3
mass density (377.41 K, 69810 kPa, x1 = 0.4): 753.19 ± 1.4 kg/m3
mass density (377.41 K, 69810 kPa, x1 = 0.8992): 753.19 ± 1.4 kg/m3
mass density (377.41 K, 74900 kPa, x1 = 0.492): 711.06 ± 1.5 kg/m3
mass density (377.41 K, 79760 kPa, x1 = 0.4): 760.91 ± 1.5 kg/m3
mass density (377.41 K, 79760 kPa, x1 = 0.8992): 760.91 ± 1.4 kg/m3
mass density (377.41 K, 84740 kPa, x1 = 0.4): 764.58 ± 1.5 kg/m3
mass density (377.41 K, 84740 kPa, x1 = 0.8992): 764.58 ± 1.5 kg/m3
mass density (377.41 K, 89720 kPa, x1 = 0.4): 768.12 ± 1.5 kg/m3
mass density (377.41 K, 89720 kPa, x1 = 0.8992): 768.12 ± 1.5 kg/m3
mass density (377.41 K, 94700 kPa, x1 = 0.4): 771.53 ± 1.5 kg/m3
mass density (377.41 K, 94700 kPa, x1 = 0.8992): 771.53 ± 1.5 kg/m3
mass density (377.41 K, 99670 kPa, x1 = 0.4): 774.85 ± 1.5 kg/m3
mass density (377.41 K, 99670 kPa, x1 = 0.8992): 774.85 ± 1.5 kg/m3
mass density (377.41 K, 104650 kPa, x1 = 0.4): 778.05 ± 1.6 kg/m3
mass density (377.41 K, 104650 kPa, x1 = 0.8992): 778.05 ± 1.5 kg/m3
mass density (377.41 K, 109630 kPa, x1 = 0.4): 781.18 ± 1.6 kg/m3
mass density (377.41 K, 109630 kPa, x1 = 0.8992): 781.18 ± 1.5 kg/m3
mass density (377.41 K, 114600 kPa, x1 = 0.4): 784.19 ± 1.6 kg/m3
mass density (377.41 K, 114600 kPa, x1 = 0.8992): 784.19 ± 1.6 kg/m3
mass density (377.41 K, 114850 kPa, x1 = 0.492): 736.23 ± 1.7 kg/m3
mass density (377.41 K, 119570 kPa, x1 = 0.4): 787.15 ± 1.6 kg/m3
mass density (377.41 K, 119570 kPa, x1 = 0.8992): 787.15 ± 1.6 kg/m3
mass density (377.41 K, 124540 kPa, x1 = 0.4): 790.02 ± 1.6 kg/m3
mass density (377.41 K, 124540 kPa, x1 = 0.8992): 790.02 ± 1.6 kg/m3
mass density (377.41 K, 129820 kPa, x1 = 0.4): 793 ± 1.6 kg/m3
mass density (377.41 K, 129820 kPa, x1 = 0.8992): 793 ± 1.6 kg/m3
mass density (387.3 K, 19850 kPa, x1 = 0.611): 656.37 ± 1.3 kg/m3
mass density (387.31 K, 1350 kPa, x1 = 0.611): 620.65 ± 1.2 kg/m3
mass density (387.31 K, 4850 kPa, x1 = 0.611): 628.99 ± 1.2 kg/m3
mass density (387.31 K, 9850 kPa, x1 = 0.611): 639.33 ± 1.2 kg/m3
mass density (387.31 K, 14880 kPa, x1 = 0.611): 648.36 ± 1.2 kg/m3
mass density (387.31 K, 39860 kPa, x1 = 0.611): 682.12 ± 1.3 kg/m3
mass density (387.31 K, 49860 kPa, x1 = 0.611): 692.49 ± 1.4 kg/m3
mass density (387.31 K, 54850 kPa, x1 = 0.611): 697.23 ± 1.4 kg/m3
mass density (387.31 K, 64910 kPa, x1 = 0.611): 706.07 ± 1.4 kg/m3
mass density (387.31 K, 84880 kPa, x1 = 0.611): 721.4 ± 1.5 kg/m3
